Reference: ChEMBL document CHEMBL1201861, “Genomics of Drug Sensitity in Cancer screening data, Wellcome Trust Sanger Institute”

What was measured:
VMRC-RCZ = test: cells; format: functional, cell-based; conditions: Homo sapiens
Description: SANGER: Inhibition of human VMRC-RCZ cell growth in a cell viability assay.

LK-2 = test: cells; format: functional, cell-based; conditions: Homo sapiens;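 also: growth inhibition of LK-2 cells, read out with a viability assay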
Description: SANGER: Inhibition of human LK-2 cell growth in a cell viability assay.

MCF7 = test: cells; format: functional, cell-based; conditions: Homo sapiens;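 also: growth inhibition of human MCF7 cells, read out with a cell viability assay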
Description: SANGER: Inhibition of human MCF7 cell growth in a cell viability assay.

Kasumi 1 = test: cells; format: functional, cell-based, Homo sapiens; conditions: Homo sapiens, Kasumi 1;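 also: growth inhibition of human Kasumi-1 cells, read out by a cell viability assay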
Description: SANGER: Inhibition of human KASUMI-1 cell growth in a cell viability assay.

OVCAR-5 = test: cells; format: functional, cell-based; conditions: Homo sapiens;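 also: growth inhibition of human OVCAR-5 cells, read out with a cell viability assay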
Description: SANGER: Inhibition of human OVCAR-5 cell growth in a cell viability assay.

NCI-H292 = test: cells; format: functional, cell-based; conditions: Homo sapiens;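 also: growth inhibition of NCI-H292 cells, read out with a cell viability assay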
Description: SANGER: Inhibition of human NCI-H292 cell growth in a cell viability assay.

PA-1 = test: cells; format: functional, cell-based; conditions: Homo sapiens;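 also: IC50 for suppression of PA-1 cell proliferation, determined with a cell viability read-out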
Description: SANGER: Inhibition of human PA-1 cell growth in a cell viability assay.

HuP-T3 = test: cells; format: functional, cell-based; conditions: Homo sapiens;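 also: HuP-T3 cell growth inhibition, read out with a cell viability assay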
Description: SANGER: Inhibition of human HuP-T3 cell growth in a cell viability assay.

NCI-H1436 = test: cells; format: functional, cell-based, Homo sapiens; conditions: Homo sapiens, NCI-H1436;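 also: growth suppression of human NCI-H1436 cells, determined with a cell viability readout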
Description: SANGER: Inhibition of human NCI-H1436 cell growth in a cell viability assay.

ESS-1 = test: cells; format: functional, cell-based; conditions: Homo sapiens;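 also: growth inhibition of human ESS-1 cells, read out by a cell viability assay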
Description: SANGER: Inhibition of human ESS-1 cell growth in a cell viability assay.

KYSE-270 = test: cells; format: functional, cell-based; conditions: Homo sapiens;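 also: cell growth inhibition measured with a viability assay in the human KYSE-270 line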
Description: SANGER: Inhibition of human KYSE-270 cell growth in a cell viability assay.

HCC1937 = test: cells; format: functional, cell-based; conditions: Homo sapiens;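 also: growth inhibition measured with a cell viability read-out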
Description: SANGER: Inhibition of human HCC1937 cell growth in a cell viability assay.

CAL-148 = test: cells; format: functional, cell-based, Homo sapiens; conditions: Homo sapiens, CAL-148
Description: SANGER: Inhibition of human CAL-148 cell growth in a cell viability assay.

MFH-ino = test: cells; format: functional, cell-based, Homo sapiens; conditions: Homo sapiens, MFH-ino;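 also: growth inhibition of human MFH-ino cells, read out by a cell viability assay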
Description: SANGER: Inhibition of human MFH-ino cell growth in a cell viability assay.

SAS = test: cells; format: functional, cell-based; conditions: Homo sapiens;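 also: growth inhibition of SAS cells, read out with a cell viability assay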
Description: SANGER: Inhibition of human SAS cell growth in a cell viability assay.

CAL-62 = test: cells; format: functional, cell-based; conditions: Homo sapiens;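 also: growth inhibition of CAL-62 cells, read out with a cell viability assay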
Description: SANGER: Inhibition of human CAL-62 cell growth in a cell viability assay.

DK-MG = test: cells; format: functional, cell-based; conditions: Homo sapiens;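 also: growth inhibition of DK-MG cells, read out with a cell viability assay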
Description: SANGER: Inhibition of human DK-MG cell growth in a cell viability assay.

MFE-280 = test: cells; format: functional, cell-based; conditions: Homo sapiens;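 also: growth inhibition of MFE-280 cells, determined with a cell viability readout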
Description: SANGER: Inhibition of human MFE-280 cell growth in a cell viability assay.

NCI-H2122 = test: cells; format: functional, cell-based; conditions: Homo sapiens;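 also: growth inhibition of the cells, read out with a cell viability assay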
Description: SANGER: Inhibition of human NCI-H2122 cell growth in a cell viability assay.

SCC-4 = test: cells; format: functional, cell-based; conditions: Homo sapiens;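 also: growth inhibition of human SCC-4 cells, read out as cell viability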
Description: SANGER: Inhibition of human SCC-4 cell growth in a cell viability assay.

IMR-5 = test: cells; format: functional, cell-based, Homo sapiens; conditions: Homo sapiens, IMR-5; read-out: IC50;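 also: growth inhibition of human IMR-5 cells, read out with a cell viability assay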
Description: SANGER: Inhibition of human IMR-5 cell growth in a cell viability assay.

EGI-1 = test: cells; format: functional, cell-based; conditions: Homo sapiens;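 also: cell viability readout used to gauge growth inhibition of EGI-1 cells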
Description: SANGER: Inhibition of human EGI-1 cell growth in a cell viability assay.

SW48 = test: cells; format: functional, cell-based; conditions: Homo sapiens;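 also: growth inhibition of SW48 cells, read out with a cell viability assay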
Description: SANGER: Inhibition of human SW48 cell growth in a cell viability assay.

NCI-H2342 = test: cells; format: functional, cell-based; conditions: Homo sapiens;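 also: growth inhibition of the cancer cell line, determined with a cell viability assay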
Description: SANGER: Inhibition of human NCI-H2342 cell growth in a cell viability assay.

HSC-2 = test: cells; format: functional, cell-based; conditions: Homo sapiens;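 also: growth inhibition of human HSC-2 cells, read out by a cell viability assay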
Description: SANGER: Inhibition of human HSC-2 cell growth in a cell viability assay.

NCI-H187 = test: cells; format: functional, cell-based, Homo sapiens; conditions: Homo sapiens, NCI-H187;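 also: growth inhibition of NCI-H187 cells, read out as cell viability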
Description: SANGER: Inhibition of human NCI-H187 cell growth in a cell viability assay.

PANC-08-13 = test: cells; format: functional, cell-based; conditions: Homo sapiens
Description: SANGER: Inhibition of human PANC-08-13 cell growth in a cell viability assay.

NCI-H1792 = test: cells; format: functional, cell-based; conditions: Homo sapiens;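 also: growth inhibition of human NCI-H1792 cells, read out as cell viability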
Description: SANGER: Inhibition of human NCI-H1792 cell growth in a cell viability assay.

NCI-H1963 = test: cells; format: functional, cell-based, Homo sapiens; conditions: Homo sapiens, NCI-H1963;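 also: cell growth inhibition of the human line, determined with a cell viability assay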
Description: SANGER: Inhibition of human NCI-H1963 cell growth in a cell viability assay.

MDA-MB-175-VII = test: cells; format: functional, cell-based; conditions: Homo sapiens
IM-9 = test: SANGER: Inhibition of human IM-9 cell growth in a cell viability assay.; format: functional, cell-based; conditions: Homo sapiens, IM-9
639-V = test: cells; format: functional, cell-based; conditions: Homo sapiens;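 also: growth inhibition of 639-V cells, read out with a cell viability assay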
Description: SANGER: Inhibition of human 639-V cell growth in a cell viability assay.

HCC1395 = test: cells; format: functional, cell-based; conditions: Homo sapiens;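 also: growth inhibition of HCC1395 cells, read out by a cell viability assay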
Description: SANGER: Inhibition of human HCC1395 cell growth in a cell viability assay.

NCI-H522 = test: cells; format: functional, cell-based; conditions: Homo sapiens;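 also: cell viability assay measuring growth inhibition of human NCI-H522 cells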
Description: SANGER: Inhibition of human NCI-H522 cell growth in a cell viability assay.

SW1088 = test: cells; format: functional, cell-based; conditions: Homo sapiens;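 also: growth inhibition of human SW1088 cells, read out by a cell viability assay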
Description: SANGER: Inhibition of human SW1088 cell growth in a cell viability assay.

SW1783 = test: cells; format: functional, cell-based; conditions: Homo sapiens
Description: SANGER: Inhibition of human SW1783 cell growth in a cell viability assay.

MHH-ES-1 = test: cells; format: functional, cell-based; conditions: Homo sapiens
Description: SANGER: Inhibition of human MHH-ES-1 cell growth in a cell viability assay.

NCI-H2170 = test: cells; format: functional, cell-based; conditions: Homo sapiens;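 also: cell viability assay measuring growth inhibition of human NCI-H2170 cancer cells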
Description: SANGER: Inhibition of human NCI-H2170 cell growth in a cell viability assay.

MEL-HO = test: cells; format: functional, cell-based; conditions: Homo sapiens
Description: SANGER: Inhibition of human MEL-HO cell growth in a cell viability assay.

COLO-679 = test: cells; format: functional, cell-based; conditions: Homo sapiens
Description: SANGER: Inhibition of human COLO-679 cell growth in a cell viability assay.

SW780 = test: cells; format: functional, cell-based; conditions: Homo sapiens;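 also: growth inhibition of the cells, read out with a cell viability assay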
Description: SANGER: Inhibition of human SW780 cell growth in a cell viability assay.

T84 = test: cells; format: functional, cell-based; conditions: Homo sapiens;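 also: growth inhibition measured with a cell viability readout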
Description: SANGER: Inhibition of human T84 cell growth in a cell viability assay.

CP50-MEL-B = test: cells; format: functional, cell-based; conditions: Homo sapiens;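 also: growth inhibition of the human cell line, measured with a cell viability read-out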
Description: SANGER: Inhibition of human CP50-MEL-B cell growth in a cell viability assay.

HCC1599 = test: cells; format: functional, cell-based, Homo sapiens; conditions: Homo sapiens, HCC1599;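 also: growth inhibition of HCC1599 cells, read out in a cell viability assay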
Description: SANGER: Inhibition of human HCC1599 cell growth in a cell viability assay.

KYSE-450 = test: cells; format: functional, cell-based; conditions: Homo sapiens;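 also: cell growth inhibition measured by a viability assay in human KYSE-450 cells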
Description: SANGER: Inhibition of human KYSE-450 cell growth in a cell viability assay.

LU-165 = test: cells; format: functional, cell-based, Homo sapiens; conditions: Homo sapiens, LU-165
Description: SANGER: Inhibition of human LU-165 cell growth in a cell viability assay.

8305C = test: cells; format: functional, cell-based; conditions: Homo sapiens
Description: SANGER: Inhibition of human 8305C cell growth in a cell viability assay.

A-427 = test: cells; format: functional, cell-based; conditions: Homo sapiens;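 also: growth inhibition of human A-427 cells, read out by a cell viability assay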
Description: SANGER: Inhibition of human A427 cell growth in a cell viability assay.

KU-19-19 = test: cells; format: functional, cell-based; conditions: Homo sapiens
Description: SANGER: Inhibition of human KU-19-19 cell growth in a cell viability assay.

RL = test: cells; format: functional, cell-based, Homo sapiens; conditions: Homo sapiens, RL
Description: SANGER: Inhibition of human RL cell growth in a cell viability assay.

P12-Ichikawa = test: cells; format: functional, cell-based; conditions: Homo sapiens
NCI-H810 = test: cells; format: functional, cell-based; conditions: Homo sapiens;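 also: IC50 reflects inhibition of cancer cell line growth, read out with a cell viability assay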
Description: SANGER: Inhibition of human NCI-H810 cell growth in a cell viability assay.

CAKI-1 = test: cells; format: functional, cell-based; conditions: Homo sapiens;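 also: growth inhibition of CAKI-1 cells, measured by a cell viability assay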
Description: SANGER: Inhibition of human CAKI-1 cell growth in a cell viability assay.

SW1573 = test: cells; format: functional, cell-based; conditions: Homo sapiens;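 also: growth inhibition of SW1573 cells, read out with a cell viability assay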
Description: SANGER: Inhibition of human SW1573 cell growth in a cell viability assay.

U-251 = test: cells; format: functional, cell-based; conditions: Homo sapiens;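 also: growth inhibition of human U-251 cells, read out through a cell viability assay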
Description: SANGER: Inhibition of human U251 cell growth in a cell viability assay.

SK-MM-2 = test: cells; format: functional, cell-based, Homo sapiens; conditions: Homo sapiens, SK-MM-2;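 also: growth inhibition of human SK-MM-2 cells, read out with a cell viability assay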
Description: SANGER: Inhibition of human SK-MM-2 cell growth in a cell viability assay.

LB647-SCLC = test: cells; format: functional, cell-based, Homo sapiens; conditions: Homo sapiens, LB647-SCLC;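 also: cell growth inhibition, read out by a viability assay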
Description: SANGER: Inhibition of human LB647-SCLC cell growth in a cell viability assay.

M14 = test: cells; format: functional, cell-based; conditions: Homo sapiens;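 also: growth inhibition of M14 cells, read out with a cell viability assay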
Description: SANGER: Inhibition of human M14 cell growth in a cell viability assay.

OVCAR-3 = test: cells; format: functional, cell-based; conditions: Homo sapiens;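 also: growth inhibition of human OVCAR-3 cells, determined by a cell viability assay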
Description: SANGER: Inhibition of human OVCAR-3 cell growth in a cell viability assay.

RCM-1 = test: cells; format: functional, cell-based; conditions: Homo sapiens;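 also: growth inhibition of the RCM-1 line, determined with a cell viability readout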
Description: SANGER: Inhibition of human RCM-1 cell growth in a cell viability assay.

Measured: IC50

COC(=O)[C@H](CCSC)NC(=O)c1ccc(NC[C@@H](N)CS)cc1-c1ccccc1
> 1020 nM: VMRC-RCZ | LK-2 | MCF7 | Kasumi 1 | OVCAR-5 | NCI-H292 | PA-1 | HuP-T3 | NCI-H1436 | ESS-1 | KYSE-270 | HCC1937 | CAL-148 | MFH-ino | SAS | CAL-62 | DK-MG | MFE-280 | NCI-H2122 | SCC-4 | IMR-5 | EGI-1 | SW48 | NCI-H2342 | HSC-2 | NCI-H187 | PANC-08-13 | NCI-H1792 | NCI-H1963 | MDA-MB-175-VII | IM-9 | 639-V | HCC1395 | NCI-H522 | SW1088 | SW1783 | MHH-ES-1 | NCI-H2170 | MEL-HO | COLO-679 | SW780 | T84 | CP50-MEL-B | HCC1599 | KYSE-450 | LU-165 | 8305C | A-427 | KU-19-19 | RL | P12-Ichikawa | NCI-H810 | CAKI-1 | SW1573 | U-251 | SK-MM-2 | LB647-SCLC | M14 | OVCAR-3 | RCM-1
